Laboratory results: patent publication US20050096370A1, “Method for inhibiting tumor angiogenesis and tumor growth” (Bizbiotech Co., Ltd., priority 2003, published 2005)

Assays:
VEGF = VEGF mRNA RT-PCR in NCI-H87, SiHa, SK-N-MC and Caki-1 cells under hypoxia; format: cell-based, human; conditions: Caki-1 cells, hypoxic, 16 hours
Description: FIG. 5 is an autoradiograph showing mRNA levels of VEGF and β-actin in cancer cells of different origin.
Levels of HIF-1α and β-actin proteins were analyzed by immunoblot analysis using a rabbit anti-HIF-1α antibody or a rabbit anti-p-actin antibody. Proteins were visualized by enhanced chemiluminescence.

[1] = tested on: NCI-H87 gastric carcinoma; experiment: NCI-H87 gastric carcinoma xenograft tumor growth in nude mice; format: in vivo; conditions: YC-1 30 μg/g daily i.p. 2 weeks, P<0.01
Description: Male nude mice were injected subcutaneously in the flank with 5×10^6 viable Hep3B hepatoma (A), NCI-H87 gastric carcinoma (B), SiHa cervical carcinoma (C), SK-N-MC neuroblastoma (E), or Caki-I renal carcinoma (F) cells. […] Tumor size was measured over time. […] Differences between tumor sizes in the vehicle- and YC-1-treated groups for mice with Hep3B tumors were compared using ANOVA and Duncan's multiple range tests. * denotes P<0.001 relative to the control. Differences between tumor sizes in the vehicle and YC-1-treated groups for mice with other tumors (B-E) were compared using a Mann-Whitney U test. Each number beneath the error bar represents the P value of the difference relative to the control.
Male nude (BALB/cAnNC˜-nu/nu) mice were purchased from Charles River Japan Inc. (Shin-Yokohama, JAPAN). The animals were housed in a specific pathogen-free room under controlled temperature and humidity. All animal procedures were performed according to the established procedures of the Seoul National University Laboratory Animal Maintenance Manual. Eighty mice aged 7-8 weeks were injected with tumor cells for the xenograft experiments. […]
Tumors were measured every 2 or 3 days with calipers in two dimensions and the tumor volumes were calculated using the formula: Volume=axb2/2, where a is the width at the widest point of the tumor and h is the width perpendicular to a. […]

Hep3B hepatoma tumors = experiment: histology and immunohistochemistry (H&E, CD31, HIF-1α) of Hep3B xenograft tumors; format: in vivo, nude mice; conditions: 30 μg/g daily i.p. 2 weeks
Description: FIG. 7 is a picture showing histopathology for Hep3B hepatoma tumors grown in nude mice. Male nude mice were injected subcutaneously in the flank with 5×10^6 viable Hep3B cells. […] After the last treatment, the mice were euthanized, the tumors removed, fixed with formalin, and embedded in paraffin. Tumor sections were cut from the paraffin blocks and stained with hernatoxylin and eosin. v, vessel; a, acinus. Scale bar=50 μm.
FIG. 8 is a picture showing vascular distribution in Hep3B hepatoma tumors grown in nude mice. Male nude mice were injected subcutaneously in the flank with 5×10^6 viable Hep3B cells. […] After the last treatment, the mice were euthanized, the tumors removed, fixed with formalin, and embedded in paraffin. Tumor sections were cut from the paraffin blocks and processed for immunohistochemical staining to detect endothelial cells with an anti-CD31 antibody. The immunostained sections were developed using the avidinbiotin-horseradish peroxidase method with diaminobenzidine as the chromagen. The sections were lightly counterstained with hematoxylin. Arrows indicate CD31-positive vessels. Scale bar=50 μm.
FIG. 9 is a picture showing expression and distribution of HIF-1α in Hep3B hepatoma tumors grown in nude mice. Male nude mice were injected subcutaneously in the flank with 5×10^6 viable Hep3B cells. […] After the last treatment, the mice were euthanized, the tumors removed, fixed with formalin, and embedded in paraffin. Tumor sections were cut from the paraffin blocks and processed for immunohistochemical staining to detect HIF-1α with an anti-HIF-1α antibody. The immunostained sections were developed using the avidin-biotin-horseradish peroxidase method with diaminobenzidine as the chromagen. The sections were lightly counterstained with hematoxylin. Arrows indicate HIF-1α positive cells. nu, nuclear staining; pn, perinuclear staining. Scale bar=50 μm. […]
Because HIF-1 is important in angiogenesis, we next assessed HIF-1α expression in tumor sections from vehicle- and YC-1-treated mice (FIG. 9).

Compound: OCc1ccc(-c2nn(Cc3ccccc3)c3ccccc23)o1 [YC-1, 3-(5′-hydroxymethyl-2′-furyl)-1-benzylindazole]
- level of VEGF mRNA (VEGF): dose-dependently inhibited
- tumor size versus vehicle [1]: statistically significantly smaller
- CD31-immunopositive vessels in tumor sections (Hep3B hepatoma tumors): Few CD31-immunopositive vessels
- HIF-1α immunoreactive cells in tumor sections (Hep3B hepatoma tumors): no HIF-1α inimunoreactive cells
- hematoxylin-eosin histology of tumor sections (Hep3B hepatoma tumors): frequent acinus formation without well-developed blood vessels
